Experimental data published in patent US20250313642A1, “METHODS OF TREATING ACUTE AND CHRONIC GRAFT VERSUS HOST DISEASE” (Forte Subsidiary, Inc., priority 2022, published 2025).

Legend:
[1] = test system: xenograft GvHD mouse model (NCG-hIL-15 mice transplanted with human PBMCs); experiment: Xenograft acute GvHD mouse model, single vs combination therapy, survival; format: in vivo; details: Day 18; treatment D5-D18; ruxolitinib 60 mpk PO twice-daily; Antibody 1 75 mpk IP once-daily; n=10
Procedure: A xenograft GvHD mouse model was utilized to study human T and NK cell-mediated aGvHD and the therapeutic effects of anti-CD122 antibody treatment in single or combination therapy approaches. Female NCG-hIL-15 mice were irradiated at a dosage of 100 cGy on Day 1 of the protocol and human peripheral blood mononuclear cells (PBMCs) were transplanted via injection at a dosage of 1×10^7 cells/200 μL/mice via IV administration into the irradiated mice according to the same xenograft GvHD mouse model design as in Example 4.
Treatment according to 3 different grouping of animals was begun on Day 5 following transplant, as shown in the study design of FIG. 4. Groups of 10 mice were used for each test category. A single treatment group, Group #1, (n=10) received ruxolitinib (at a dosage of 60 mpk) twice-daily by oral administration (PO) beginning on Day 5 and ending on Day 18. Days of treatment were D5, D6, D7, D8, D9, D10, D11, D12, D13, D14, D15, D16, D17, and D18. A combination therapy group. Group #2. (n=10) received ruxolitinib (at a dosage of 60 mpk) twice-daily by oral administration beginning on Day 5 and ending on Day 18. […]
Day 18 was the end of study day for all treatment groups. Animals from all treatment groups were assessed daily beginning on Day 1 and ending on Day 18 for survival following transplant. […]

[2] = test system: allogeneic model of chronic GvHD (BALB/c mice); experiment: Allogeneic chronic GvHD mouse model (B10.D2 donor into BALB/c host), GvHD score; format: in vivo; details: Antibody 3 100 mpk IP Q.O.D., Ruxolitinib 60 mpk PO b.i.d.
Text: An allogeneic model of chronic GvHD according to the animal model design of Ramos et al (Ramos T L et al. Delayed administration of ixazomib modifies the immune response and prevents chronic graft-versus-host disease. Bone Marrow Transplant. 2021 December;56(12):3049-3058) was investigated. In this model as shown in the study design of FIG. 6. B10.D2 mice serve as donor for bone marrow and splenocytes to be transplanted into irradiated BALB/c host mice. […] In this model of cGvHD, there is a low mortality rate extending past 150 days post-transplant and cGvHD symptoms can typically appear starting at approximately 30 days post-transplant. Study design includes treatment start at Day 30 post-transplant and end of study is marked at Day 60 post-transplant. […] Two test treatment groups included Group 2) Antibody 3 anti-CD122 antibody therapy (100 mpk delivered IP every other day (Q.O.D.), and Group 3) ruxolitinib monotherapy (60 mpk PO b.i.d). One negative control group (Group 1) including vehicle (IP Q.O.D.)+vehicle (PO b.i.d.) was also tested. Phenotypic cGvHD score and survival were assessed starting at Day 30 and ending at Day 60 post-transplant.
• BALB/c mice were randomized into treatment groups based on Day 1 bodyweight. • Female BALB/c mice were irradiated (5 Gy) and intravenously injected with B10.D2 donor cells on Day 1. • Cell injection volume was about 200 μL of Bone Marrow cells and splenocytes mixture as described below in treatments. Total cell volume injection=200 μL in PBS. • GvHD Scoring and body weight measurement assessed on Day 30, 33, 35, 37, 39, 41, 43, 45, 48, 51, 53, 56, 58, and 60. • Individual scores according to the grading system below of Grade 0, 1, or 2 were measured and documented on each assessed day for each criterion of body weight loss, activity, posture, fur texture, and skin integrity for each subject in each test group. Each criterion was then summed per subject to yield a total GvHD score by subject per assessed day (e.g., add score for bodyweight loss, activity, posture, fur texture, and skin integrity to yield total GvHD score). • Total GvHD scores per animal per day were then averaged per group to yield average GvHD score per test group and the standard error of the mean (SEM) for each group was determined.

## N#CC[C@H](C1CCCC1)n1cc(-c2ncnc3[nH]ccc23)cn1 [ruxolitinib]
[1]
  survival rate at the end of the study: 30%
[2]; D 30 post-transplant
  Average total GvHD score (mean): 0.6
[2]; D 33 post-transplant
  Average total GvHD score (mean): 0.6
[2]; D 35 post-transplant
  Average total GvHD score (mean): 0.7
[2]; D 39 post-transplant
  Average total GvHD score (mean): 1.2
[2]; D 43 post-transplant
  Average total GvHD score (mean): 1.1
[2]; D 45 post-transplant
  Average total GvHD score (mean): 1.2
[2]; D 48 post-transplant
  Average total GvHD score (mean): 1.2
[2]; D 51 post-transplant
  Average total GvHD score (mean): 1.2
[2]; D 56 post-transplant
  Average total GvHD score (mean): 1.4
[2]; D 60 post-transplant
  Average total GvHD score (mean): 1.7
